# According to US7276527B2, “5-pyridyl-1,3-azole compounds, process for producing the same and use thereof” (Takeda Pharmaceutical Company Limited, priority 1999, dated 2007):
# Biological target: T1, human adenosine A3 receptor (Homo sapiens, UniProt P0DMS8)
# T1 construct: expressed in transfected cells; membrane fraction
# T1 sequence (P0DMS8 1-318): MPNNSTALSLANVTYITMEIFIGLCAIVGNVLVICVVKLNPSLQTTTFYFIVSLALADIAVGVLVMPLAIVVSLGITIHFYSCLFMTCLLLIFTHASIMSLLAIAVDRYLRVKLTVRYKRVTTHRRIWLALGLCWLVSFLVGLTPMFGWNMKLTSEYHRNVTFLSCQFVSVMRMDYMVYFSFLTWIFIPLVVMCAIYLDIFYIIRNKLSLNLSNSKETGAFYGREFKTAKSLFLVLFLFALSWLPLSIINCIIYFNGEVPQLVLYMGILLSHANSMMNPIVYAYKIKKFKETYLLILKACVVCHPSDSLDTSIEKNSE
# Assay: Adenosine A3 receptor binding test
# Conditions: membrane fraction of A3AR/CHO strain, [3H]-NECA 10 nM, room temperature 1 hour; read-out: IC50 (concentration necessary for decreasing an amount of binding of [3H]-NECA to the membrane fraction by 50%)
# Experimental: Genetic procedures were according to a method described in Molecular Cloning, published by Cold Spring Harbor, Laboratory, 1989 or a method described in the attached protocol of the reagent.
# 1) Cloning of Human Adenosine A3 Receptor
# Cloning of an adenosine A3 receptor gene was performed from human brain cDNA by a PCR method. A PCR reaction was performed with a DNA thermal cycler 480 (Perkin Elmer) by using 1 ng of brain cDNA (Toyobo, QUICK-Clone cDNA) as a template, adding each 50 pmol of a primer set 5′-[…]-3′ (SEQ ID NO: 1) and 5′-[…]-3′ (SEQ ID NO: 2) made by reference to adenosine A3 receptor gene base sequence reported by Salvatore et al. (Proc. Natl. Acad. Sci. U.S.A., 90:10365-10369, 1993) and employing Takara LA PCR Kit Ver. 2 (Takara Shuzo) (reaction conditions: 35 cycles of 1 minute at 95° C., 1 minute at 66° C., 2 minutes at 75° C.). The resulting PCR product was subjected to agarose gel electrophoresis and 1.0 kb of DNA fragment was recovered and, thereafter, an adenosine A3 receptor gene was cloned using Original TA Cloning Kit (Funakoshi).
# Next, the resulting plasmid was digested with a restriction enzyme XbaI (Takara Shuzo), treated with T4 DNA polymerase (Takara Shuzo) into end-blunted fragments and further digested with SalI (Takara Shuzo) to obtain adenosine A3 receptor gene fragments.
# 2) Preparation of a Plasmid for Expressing of Human Adenosine A3 Receptor […]
row,IC50 [µM],Structure (SMILES)
1,0.0116,"Cc1cc(C)cc(-c2nc(N)sc2-c2ccnc(OCc3ccccc3)c2)c1 [Example 1, [4-(3,5-dimethylphenyl)-5-(2-phenylmethyloxy-4-pyridyl)-1,3-thiazol-2-yl]amine]"

# System: not given
# Assay: not given
# Conditions: not given
row,melting point [°C],Structure (SMILES)
1,216 to 217,"Cc1cccc(-c2nc(N)sc2-c2ccnc(NC(=O)c3ccccc3)c2)c1 [Example Compound 12, N-[4-[2-amino-4-(3-methylphenyl)-1,3-thiazol-5-yl]-2-pyridyl]benzamide]"
2,184 to 186,"CSc1ccc(-c2nc(-c3cccc(C)c3)c(-c3ccnc(NC(=O)c4ccc5ccccc5c4)c3)s2)cc1 [Example Compound 16-18, N-[4-[4-(3-methylphenyl)-2-(4-methylthiophenyl)-1,3-thiazol-5-yl]-2-pyridyl]-2-naphthamide]"
3,169 to 171,"Cc1cccc(-c2nc(-c3ccc(F)cc3)sc2-c2ccnc(NC(=O)CCc3ccccc3)c2)c1 [Example Compound 16-12, N-[4-[2-(4-fluorophenyl)-4-(3-methylphenyl)-1,3-thiazol-5-yl]-2-pyridyl]-3-phenylpropionamide]"
4,92 to 93,"CCCCc1nc(-c2cccc(C)c2)c(-c2ccnc(NC(=O)Cc3ccccc3)c2)s1 [Example Compound 15-4, N-[4-[2-butyl-4-(3-methylphenyl)-1,3-thiazol-5-yl]-2-pyridyl]phenylacetamide]"
5,199 to 201,"Cc1cccc(-c2nc(-c3ccc(S(C)(=O)=O)cc3)sc2-c2ccnc(NC(=O)c3cccs3)c2)c1 [Example Compound 21-3, N-[4-[4-(3-methylphenyl)-2-(4-methylsulfonylphenyl)-1,3-thiazol-5-yl]-2-pyridyl]-2-thiophenecarboxamide]"
6,118 to 120,"COc1ccc(-c2nc(C)sc2-c2ccnc(NC(=O)Cc3ccccc3)c2)cc1 [Example Compound 15-1, N-[4-[4-(4-methoxyphenyl)-2-methyl-1,3-thiazol-5-yl]-2-pyridyl]phenylacetamide]"
7,77 to 78,"CCCCc1nc(-c2cccc(C)c2)c(-c2ccnc(NC(=O)CCc3ccccc3)c2)s1 [Example Compound 16-10, N-[4-[2-butyl-4-(3-methylphenyl)-1,3-thiazol-5-yl]-2-pyridyl]-3-phenylpropionamide]"
8,137 to 139,"CSc1ccc(-c2nc(-c3cccc(C)c3)c(-c3ccnc(NCCc4ccccc4)c3)s2)cc1 [Example Compound 19-18, N-[4-[4-(3-methylphenyl)-2-(4-methylthiophenyl)-1,3-thiazol-5-yl]-2-pyridyl]-N-(2-phenylethyl)amine]"
9,143 to 146,"Cc1cccc(-c2nc(-c3ccc(F)cc3)sc2-c2ccnc(NCc3ccccc3)c2)c1 [Example Compound 19-11, N-benzyl-N-[4-[2-(4-fluorophenyl)-4-(3-methylphenyl)-1,3-thiazol-5-yl]-2-pyridyl]amine]"
10,141 to 142,"Cc1cccc(-c2nc(-c3ccccc3Cl)sc2-c2ccnc(NC(=O)Cc3ccccc3)c2)c1 [Example Compound 15-5, N-(4-[2-(2-chlorophenyl)-4-(3-methylphenyl)-1,3-thiazol-5-yl]-2-pyridyl]phenylacetamide]"
11,93 to 96,"Cc1cccc(-c2nc(N)sc2-c2ccnc(N[C@@H](C)c3ccccc3)c2)c1 [Example Compound 23-7, (S)-N-[4-[2-amino-4-(3-methylphenyl)-1,3-thiazol-5-yl]-2-pyridyl]-N-(1-phenylethyl)amine]"
12,217 to 218,"COc1cccc(-c2nc(N)sc2-c2ccnc(NCc3ccccc3)c2)c1 [Example Compound 24, N-[4-[2-amino-4-(3-methoxyphenyl)-1,3-thiazol-5-yl]-2-pyridyl]-N-benzylamine]"
13,137 to 138,"CCc1nc(-c2cccc(C)c2)c(-c2ccnc(NC(=O)CCc3ccc(OC)cc3)c2)s1 [Example Compound 16-3, N-[4-[2-ethyl-4-(3-methylphenyl)-1,3-thiazol-5-yl]-2-pyridyl]-3-(4-methoxyphenyl)propionamide]"
14,144 to 145,"CSc1ccc(-c2nc(-c3cccc(C)c3)c(-c3ccnc(NCc4ccc5ccccc5c4)c3)s2)cc1 [Example Compound 19-20, N-[4-[4-(3-methylphenyl)-2-(4-methylthiophenyl)-1,3-thiazol-5-yl]-2-pyridyl]-N-(2-naphthylmethyl)amine]"
15,138 to 140,"Cc1cccc(-c2nc(-c3ccccc3Cl)sc2-c2ccnc(NC(=O)c3ccccc3)c2)c1 [Example Compound 16-13, N-(4-[2-(2-chlorophenyl)-4-(3-methylphenyl)-1,3-thiazol-5-yl]-2-pyridyl]benzamide]"
16,167 to 168,"Cc1cccc(-c2nc(-c3ccc(S(C)(=O)=O)cc3)sc2-c2ccnc(NCc3ccc4ccccc4c3)c2)c1 [Example Compound 21-7, N-[4-[4-(3-methylphenyl)-2-(4-methylsulfonylphenyl)-1,3-thiazol-5-yl]-2-pyridyl]-N-(2-naphthylmethyl)amine]"

# System: TNF-α production in THP-1 cells
# Assay: Measurement of inhibiting activity of TNF-α production
# Assay type: cell-based
# Conditions: Homo sapiens, LPS 5 μg/mL, 4 hours, TNF-α in supernatant by ELISA, read-out: IC50 (concentration necessary for inhibiting TNF-α production by 50%)
# Experimental: Measurement of Inhibiting Activity of TNF-α Production
# After THP-1 cells which had been cultured on PRMI 1640 medium (manufactured by Life Technologies, Inc.) containing 1% non-activated bovine fetal serum (manufactured by Life Technologies, Inc., U.S.A.) and 10 mM HEPES (pH 7.5) seeded on a 96-well plate to 1×10^5 cells/well, 1 μL test compound dissolved in DMSO was added to there. After incubation at 37° C. for 1 hour in a CO2 incubator, LPS (Wako Pure Chemicals) was added to the final concentration 5 μg/mL. After cultured at 37° C. for 4 hours in a CO2 incubator, the supernatant was obtained by centrifugation. The concentration of TNF-α in the supernatant was measured with ELISA (R&D System, Quantikine Kit). The concentration (IC50 value) necessary for inhibiting TNF-α production by 50% was calculated by PRIMS 2.01 (Graphpad Software).
row,IC50 [µM],Structure (SMILES)
1,0.14,"Cc1cc(C)cc(-c2nc(N)sc2-c2ccnc(NCc3ccccc3)c2)c1 [Example 6, N-[4-[2-amino-4-(3,5-dimethylphenyl)-1,3-thiazol-5-yl]-2-pyridyl]benzylamine]"
2,0.026,"COc1ccc(-c2nc(NC(=O)c3cccnc3)sc2-c2ccnc(NC(=O)c3cccnc3)c2)cc1 [Example 3, N-[4-(4-methoxypheny)-5-[2-[(3-pyridylcarbonylamino)]-4-pyridyl]-1,3-thiazol-2-yl]nicotinamide]"
3,0.014,"COc1ccc(-c2nc(N)sc2-c2ccnc(NC(=O)c3ccccc3)c2)cc1 [Example 4, N-[4-[2-amino-4-(4-methoxyphenyl)-1,3-thiazol-5-yl]-2-pyridyl]benzamide]"
